Measured values reported in ChEMBL document CHEMBL5154644, “Design, Synthesis, and Structure-Activity Relationship Optimization of Pyrazolopyrimidine Amide Inhibitors of Phosphoinositide 3-Kinase γ (PI3Kγ)” (J Med Chem, 2022).
Activity calls are given as the source filed them. No cut-off for these calls is given here.

Key:
[1] = target: T1, Phosphatidylinositol 4,5-bisphosphate 3-kinase catalytic subunit delta isoform (Homo sapiens, UniProt O00329); assay: Inhibition of PI3Kdelta (unknown origin) using PIP2 as substrate preincubated for 1 hr followed by substrate addition and measured after 60 mins in presence of ATP by ADP-glo assay
T1 sequence (O00329 whole entry): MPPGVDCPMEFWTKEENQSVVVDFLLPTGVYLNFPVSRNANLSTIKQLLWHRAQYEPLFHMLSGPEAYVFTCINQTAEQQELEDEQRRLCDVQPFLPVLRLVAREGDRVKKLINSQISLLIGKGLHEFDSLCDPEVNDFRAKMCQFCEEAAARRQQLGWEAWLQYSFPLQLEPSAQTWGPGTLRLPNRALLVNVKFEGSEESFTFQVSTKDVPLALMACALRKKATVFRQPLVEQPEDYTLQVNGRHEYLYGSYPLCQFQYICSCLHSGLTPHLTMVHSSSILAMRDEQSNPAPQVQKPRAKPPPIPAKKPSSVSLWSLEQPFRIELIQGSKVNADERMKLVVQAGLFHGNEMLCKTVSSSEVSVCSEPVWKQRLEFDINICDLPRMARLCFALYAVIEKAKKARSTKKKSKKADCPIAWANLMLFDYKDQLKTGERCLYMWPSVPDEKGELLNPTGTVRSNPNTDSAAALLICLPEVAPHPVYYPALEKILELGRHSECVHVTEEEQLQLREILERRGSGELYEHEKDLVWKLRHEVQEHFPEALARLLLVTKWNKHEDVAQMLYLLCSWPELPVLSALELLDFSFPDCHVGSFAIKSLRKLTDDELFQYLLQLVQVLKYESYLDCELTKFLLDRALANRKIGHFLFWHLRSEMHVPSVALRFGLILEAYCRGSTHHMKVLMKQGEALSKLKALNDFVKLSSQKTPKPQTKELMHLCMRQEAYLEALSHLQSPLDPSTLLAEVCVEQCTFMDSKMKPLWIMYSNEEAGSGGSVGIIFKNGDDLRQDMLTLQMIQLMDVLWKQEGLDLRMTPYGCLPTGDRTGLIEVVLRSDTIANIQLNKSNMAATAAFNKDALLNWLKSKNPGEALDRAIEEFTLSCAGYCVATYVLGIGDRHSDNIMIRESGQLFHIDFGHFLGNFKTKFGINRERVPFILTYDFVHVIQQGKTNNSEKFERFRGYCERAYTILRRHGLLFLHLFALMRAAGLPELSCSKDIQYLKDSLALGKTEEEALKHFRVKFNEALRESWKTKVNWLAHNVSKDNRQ

[2] = Plasma protein binding in cynomolgus monkey at 1 mg/kg, iv; format: ADME, organism-based, Macaca fascicularis; conditions: read-out: PPB (converted)
Homo sapiens = organism: Homo sapiens; assay: Selectivity ratio of IC50 for inhibition of PI3Kbeta (unknown origin) to IC50 for inhibition of PI3Kgamma (unknown origin)
[3] = Cmax in Sprague-Dawley rat at 10 mg/kg, po measured up to 24 hrs by LC-MS/MS analysis analysis; format: ADME, organism-based; parameters: dose 10 mg/kg, time < 24 hrs, route po; conditions: in vivo
[4] = Metabolic stability in human hepatocytes assessed as parent compound remaining at 0.5 uM measured after 2 hrs by LC-MS/MS analysis; format: ADME, cell-based, Hepatocyte
[5] = Volume of distribution at steady state in Sprague-Dawley rat at 1 mg/kg, iv measured up to 8 hrs by LC-MS/MS analysis; format: ADME, organism-based; conditions: in vivo
[6] = target: T2, Phosphatidylinositol 4,5-bisphosphate 3-kinase catalytic subunit gamma isoform (Homo sapiens, UniProt P48736); assay: Inhibition of P13Kgamma in LPS and IFNgamma stimulated human M1 macrophage assessed as increase in TNFA expression at 1 uM pretreated for 1 hr followed by LPS and IFNgamma stimulation by qRT-PCR analysis; format: cell-based
Target sequence in this assay (P48736 whole entry, looked up, canonical isoform): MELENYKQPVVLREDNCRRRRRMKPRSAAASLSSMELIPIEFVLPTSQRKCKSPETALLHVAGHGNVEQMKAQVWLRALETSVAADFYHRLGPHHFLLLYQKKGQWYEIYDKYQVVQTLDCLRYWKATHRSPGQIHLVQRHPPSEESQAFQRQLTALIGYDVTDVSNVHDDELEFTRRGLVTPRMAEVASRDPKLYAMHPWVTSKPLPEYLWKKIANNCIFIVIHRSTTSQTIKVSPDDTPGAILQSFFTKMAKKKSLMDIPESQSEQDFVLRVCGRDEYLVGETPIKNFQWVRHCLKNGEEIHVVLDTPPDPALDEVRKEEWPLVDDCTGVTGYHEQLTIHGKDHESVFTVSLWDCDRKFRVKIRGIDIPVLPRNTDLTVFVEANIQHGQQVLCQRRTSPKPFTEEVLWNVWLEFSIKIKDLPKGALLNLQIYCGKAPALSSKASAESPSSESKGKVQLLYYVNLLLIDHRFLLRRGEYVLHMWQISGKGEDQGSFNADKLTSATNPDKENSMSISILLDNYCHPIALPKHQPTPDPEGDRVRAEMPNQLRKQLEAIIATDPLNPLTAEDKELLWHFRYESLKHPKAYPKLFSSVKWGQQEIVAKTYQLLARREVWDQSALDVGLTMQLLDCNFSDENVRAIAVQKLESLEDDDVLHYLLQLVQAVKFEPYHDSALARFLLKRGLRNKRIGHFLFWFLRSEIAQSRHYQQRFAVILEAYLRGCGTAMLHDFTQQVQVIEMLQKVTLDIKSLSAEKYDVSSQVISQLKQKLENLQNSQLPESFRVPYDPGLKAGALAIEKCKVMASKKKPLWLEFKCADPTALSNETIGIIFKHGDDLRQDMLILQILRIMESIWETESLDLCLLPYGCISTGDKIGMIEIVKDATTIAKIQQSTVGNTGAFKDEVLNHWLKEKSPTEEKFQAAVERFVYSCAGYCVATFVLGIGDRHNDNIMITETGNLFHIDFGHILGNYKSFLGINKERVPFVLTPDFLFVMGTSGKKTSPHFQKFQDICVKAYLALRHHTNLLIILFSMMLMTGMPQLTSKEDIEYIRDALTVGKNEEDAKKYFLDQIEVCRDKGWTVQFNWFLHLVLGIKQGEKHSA

[7] = AUC(0 to infinity) in cynomolgus monkey at 1 mg/kg, iv; format: ADME, organism-based, Macaca fascicularis; parameters: time infinity, dose 1 mg/kg, route iv; conditions: in vivo
[8] = target: T2, Phosphatidylinositol 4,5-bisphosphate 3-kinase catalytic subunit gamma isoform; assay: Inhibition of P13Kgamma in LPS and IFNgamma stimulated human M1 macrophage assessed as increase in IL1B expression at 1 uM pretreated for 1 hr followed by LPS and IFNgamma stimulation by qRT-PCR analysis; format: cell-based
Target sequence in this assay (P48736 whole entry, looked up, canonical isoform): as above

[9] = AUC(0 to infinity) in C57BL/6 mouse at 0.5 mg/kg, iv; format: ADME, organism-based; parameters: time infinity, dose 0.5 mg/kg, route iv; conditions: in vivo
[10] = Metabolic stability in human hepatocytes assessed as intrinsic clearance per 10^6 cells at 0.5 uM by LC-MS/MS analysis; format: ADME, cell-based, Hepatocyte; conditions: read-out: CLH
[11] = Clearance in cynomolgus monkey at 1 mg/kg, iv; format: ADME, organism-based, Macaca fascicularis; conditions: in vivo
[12] = target: T2, Phosphatidylinositol 4,5-bisphosphate 3-kinase catalytic subunit gamma isoform; assay: Inhibition of P13Kgamma in LPS and IFNgamma stimulated human M1 macrophage assessed as increase in IL6 expression at 1 uM pretreated for 1 hr followed by LPS and IFNgamma stimulation by qRT-PCR analysis; format: cell-based
Target sequence in this assay (P48736 whole entry, looked up, canonical isoform): as above

[13] = Volume of distribution at steady state in cynomolgus monkey at 1 mg/kg, iv; format: ADME, organism-based, Macaca fascicularis; conditions: in vivo
[14] = Clearance in Beagle dog at 1 mg/kg, iv; format: ADME, organism-based, Canis lupus familiaris; conditions: in vivo
[15] = target: Phosphatidylinositol 4,5-bisphosphate 3-kinase catalytic subunit alpha isoform (Homo sapiens, UniProt P42336); assay: Inhibition of PI3Kalpha (unknown origin) using PIP2 as substrate preincubated for 1 hr followed by substrate addition and measured after 60 mins in presence of ATP by ADP-glo assay
hERG = hERG (Homo sapiens, UniProt Q12809); assay: Inhibition of human ERG at 10 uM by patch clamp assay relative to control; format: toxicity
[16] = Volume of distribution at steady state in C57BL/6 mouse at 0.5 mg/kg, iv; format: ADME, organism-based; conditions: in vivo
[17] = target: T2, Phosphatidylinositol 4,5-bisphosphate 3-kinase catalytic subunit gamma isoform; assay: Inhibition of PI3Kgamma in SDF-1alpha stimulated human whole blood assessed as reduction in phospho-AKT kinase activity preincubated for 1 hr followed by SDF-1alpha stimulation and measured after 2 mins by flow cytometric analysis; format: tissue-based
Target sequence in this assay (P48736 whole entry, canonical isoform): as the sequence (P48736 whole entry, looked up, canonical isoform) above

[18] = MRT (infinity) in Beagle dog at 1 mg/kg, iv; format: ADME, organism-based, Canis lupus familiaris; conditions: in vivo
[19] = Metabolic stability in human hepatocytes assessed as parent compound remaining at 0.5 uM measured after 4 hrs by LC-MS/MS analysis; format: ADME, cell-based, Hepatocyte; conditions: read-out: Stability
[20] = AUC(0 to infinity) in Sprague-Dawley rat at 10 mg/kg, po measured up to 24 hrs by LC-MS/MS analysis analysis; format: ADME, organism-based; parameters: dose 10 mg/kg, time < 24 hrs, route po; conditions: in vivo
[21] = MRT (infinity) in Sprague-Dawley rat at 1 mg/kg, iv measured up to 8 hrs by LC-MS/MS analysis; format: ADME, organism-based; conditions: in vivo
[22] = target: T2, Phosphatidylinositol 4,5-bisphosphate 3-kinase catalytic subunit gamma isoform; assay: Inhibition of P13Kgamma in LPS and IFNgamma stimulated human M1 macrophage assessed as increase in IL12B expression at 1 uM pretreated for 1 hr followed by LPS and IFNgamma stimulation by qRT-PCR analysis; format: cell-based
Target sequence in this assay (P48736 whole entry, looked up, canonical isoform): as above

[23] = Oral bioavailability in Sprague-Dawley rat at 10 mg/kg measured up to 24 hrs by LC-MS/MS analysis; format: ADME, organism-based; conditions: in vivo
[24] = Apparent permeability of the compound across apical to basolateral side in human Caco-2 cells; format: ADME, cell-based
[25] = AUC(0 to infinity) in Sprague-Dawley rat at 1 mg/kg, iv measured up to 8 hrs by LC-MS/MS analysis; format: ADME, organism-based; parameters: dose 1 mg/kg, time < 8 hrs, route iv; conditions: in vivo
[26] = target: T2, Phosphatidylinositol 4,5-bisphosphate 3-kinase catalytic subunit gamma isoform; assay: Inhibition of PI3Kgamma (unknown origin) using PIP2 as substrate preincubated for 1 hr followed by substrate addition and measured after 60 mins in presence of ATP by ADP-glo assay
Target sequence in this assay (P48736 whole entry, canonical isoform): as the sequence (P48736 whole entry, looked up, canonical isoform) above

Chain of hERG (Q12809 whole entry): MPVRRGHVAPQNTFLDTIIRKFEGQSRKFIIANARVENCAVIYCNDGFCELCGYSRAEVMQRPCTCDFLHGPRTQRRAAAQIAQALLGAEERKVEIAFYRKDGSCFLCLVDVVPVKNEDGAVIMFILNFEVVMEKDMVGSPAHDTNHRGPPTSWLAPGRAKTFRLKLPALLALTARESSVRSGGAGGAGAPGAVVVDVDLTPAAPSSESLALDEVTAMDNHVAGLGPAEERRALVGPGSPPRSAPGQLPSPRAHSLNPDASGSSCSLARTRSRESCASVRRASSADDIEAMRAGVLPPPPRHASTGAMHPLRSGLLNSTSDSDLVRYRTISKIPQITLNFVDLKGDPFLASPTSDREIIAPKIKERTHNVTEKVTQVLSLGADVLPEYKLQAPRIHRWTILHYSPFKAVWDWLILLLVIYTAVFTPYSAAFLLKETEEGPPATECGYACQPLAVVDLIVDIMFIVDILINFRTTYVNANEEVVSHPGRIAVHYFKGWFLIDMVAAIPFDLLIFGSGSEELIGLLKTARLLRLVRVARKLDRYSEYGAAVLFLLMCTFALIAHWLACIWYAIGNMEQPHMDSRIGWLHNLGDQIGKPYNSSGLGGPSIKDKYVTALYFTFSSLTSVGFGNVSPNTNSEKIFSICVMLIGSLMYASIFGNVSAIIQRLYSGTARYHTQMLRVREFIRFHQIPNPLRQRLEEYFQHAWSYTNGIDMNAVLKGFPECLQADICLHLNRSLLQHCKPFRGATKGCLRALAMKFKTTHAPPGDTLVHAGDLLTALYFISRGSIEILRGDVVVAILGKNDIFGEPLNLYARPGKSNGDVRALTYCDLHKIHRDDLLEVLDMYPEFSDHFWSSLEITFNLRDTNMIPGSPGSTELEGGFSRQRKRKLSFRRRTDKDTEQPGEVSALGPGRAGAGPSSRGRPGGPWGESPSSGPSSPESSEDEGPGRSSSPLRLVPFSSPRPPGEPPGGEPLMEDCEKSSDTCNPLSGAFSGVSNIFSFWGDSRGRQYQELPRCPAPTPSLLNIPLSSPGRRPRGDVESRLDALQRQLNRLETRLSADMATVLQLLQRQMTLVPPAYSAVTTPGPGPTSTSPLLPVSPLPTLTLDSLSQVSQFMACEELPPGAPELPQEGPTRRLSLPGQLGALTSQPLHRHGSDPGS
Chain of Phosphatidylinositol 4,5-bisphosphate 3-kinase catalytic subunit alpha isoform (P42336 whole entry, canonical isoform): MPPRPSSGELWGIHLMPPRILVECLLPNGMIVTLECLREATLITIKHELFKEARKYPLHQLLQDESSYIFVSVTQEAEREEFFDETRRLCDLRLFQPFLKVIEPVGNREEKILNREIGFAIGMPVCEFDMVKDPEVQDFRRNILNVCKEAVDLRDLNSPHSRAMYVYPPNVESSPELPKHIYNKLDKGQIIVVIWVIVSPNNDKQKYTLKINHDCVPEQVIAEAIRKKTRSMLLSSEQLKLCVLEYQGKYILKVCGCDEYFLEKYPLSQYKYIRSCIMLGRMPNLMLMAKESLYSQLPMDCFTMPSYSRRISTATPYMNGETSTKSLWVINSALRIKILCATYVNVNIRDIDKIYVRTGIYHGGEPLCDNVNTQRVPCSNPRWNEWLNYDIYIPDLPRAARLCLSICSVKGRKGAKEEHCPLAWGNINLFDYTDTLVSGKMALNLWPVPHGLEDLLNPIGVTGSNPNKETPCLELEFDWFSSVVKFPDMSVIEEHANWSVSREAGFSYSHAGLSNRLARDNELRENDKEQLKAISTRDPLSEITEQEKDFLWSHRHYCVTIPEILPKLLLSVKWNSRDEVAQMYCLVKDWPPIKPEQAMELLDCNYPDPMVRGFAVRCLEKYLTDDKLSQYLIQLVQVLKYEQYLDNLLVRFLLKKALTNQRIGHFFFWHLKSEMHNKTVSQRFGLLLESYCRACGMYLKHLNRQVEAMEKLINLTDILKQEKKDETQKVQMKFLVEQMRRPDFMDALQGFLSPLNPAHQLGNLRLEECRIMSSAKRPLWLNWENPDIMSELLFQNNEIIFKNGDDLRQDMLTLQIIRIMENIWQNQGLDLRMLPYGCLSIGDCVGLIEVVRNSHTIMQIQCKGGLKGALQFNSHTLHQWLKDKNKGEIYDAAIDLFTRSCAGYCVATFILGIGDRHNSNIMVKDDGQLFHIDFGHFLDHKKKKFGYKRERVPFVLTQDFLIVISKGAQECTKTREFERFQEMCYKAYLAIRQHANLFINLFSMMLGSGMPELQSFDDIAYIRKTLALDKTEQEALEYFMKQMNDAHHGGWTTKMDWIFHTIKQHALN

| Structure (SMILES) | IC50 [1] [µM] | fraction unbound [2] | Ratio IC50 (Homo sapiens) | Cmax [3] [µg/mL] | Stability [4] [%] | Vdss [5] [L/kg] | inhibition [6] | AUC(0-inf) [7] [µg·h/mL] | inhibition [8] | AUC(0-inf) [9] [µg·h/mL] | hepatocyte CLint at 0.5 µM [10] [µL/min/1e6 cells] | clearance [11] [L/h/kg] | inhibition [12] | Vdss [13] [L/kg] | clearance [14] [L/h/kg] | IC50 [15] [µM] | inhibition at 10 µM (hERG) [%] | Vdss [16] [L/kg] | IC50 [17] [µM] | MRT inf [18] [h] | also measured |
| --- | --- | --- | --- | --- | --- | --- | --- | --- | --- | --- | --- | --- | --- | --- | --- | --- | --- | --- | --- | --- | --- |
| C[C@@H](C1CC1)N1Cc2cc(-c3ccn4nc(N)c(C(=O)N[C@H]5CC[C@@](C)(O)CC5)c4n3)cc(OC(F)(F)F)c2C1=O | 1.65 | 0.05 | 7040 | 0.025 | 58 | 2.91 | Active | 0.949 | Active | 0.488 | < 1.2 | 1.06 | Active | 3.77 | 0.84 | 2.65 | 5 | 2.09 | 0.24 | 3.85 | remaining at 4 h, 0.5 µM [19]: > 95%; AUC(0-inf) [20]: 0.249 µg·h/mL; MRT inf [21]: 2.33 h; inhibition [22]: Active; bioavailability [23]: 4%; Papp A→B [24]: 47 nm/s; AUC(0-inf) [25]: 0.797 µg·h/mL; IC50 [26]: 0.0028 µM |
| C[C@@H](C1CC1)N1Cc2cc(-c3ccn4nc(N)c(C(=O)N[C@H]5CC[C@@](C)(O)CC5)c4n3)cc(OC(F)F)c2C1=O | 1.08 | 0.034 | 3680 | 0.703 | 94 | 3.03 | Active | 0.925 | Active | 0.565 | < 1.2 | 1.08 | Active | 3.69 | 0.58 | 1.25 | 17 | 1.66 | 0.3 | 5.92 | remaining at 4 h, 0.5 µM [19]: > 95%; AUC(0-inf) [20]: 8.16 µg·h/mL; MRT inf [21]: 1.86 h; inhibition [22]: Active; bioavailability [23]: 102%; Papp A→B [24]: 168 nm/s; AUC(0-inf) [25]: 0.63 µg·h/mL; IC50 [26]: 0.0019 µM |
